From patent publication US20240238300A1, “TREATMENT METHODS FOR SUBJECTS WITH CANCER HAVING AN ABERRATION IN EGFR AND/OR HER2” (TAIHO PHARMACEUTICAL CO., LTD., priority 2021, published 2024)
Where two headings read alike, the source gives them in different places.

What was measured:
[1] = biological target: KDR (Homo sapiens, UniProt P35968); experiment: panel enzyme assay of 257 kinases; type: biochemical; conditions: read-out: % Inhibition by Compound (1) at 1000 nmol/L
Protocol: (§1) To investigate further kinase selectivity of Compound (1), a panel enzyme assay of 257 kinases for Compound (1) was conducted.

[2] = biological target: T1, HER2 (Homo sapiens, UniProt P04626); experiment: panel enzyme assay of 257 kinases; type: biochemical; conditions: read-out: % Inhibition by Compound (1) at 1000 nmol/L
T1 sequence (P04626 23-1255): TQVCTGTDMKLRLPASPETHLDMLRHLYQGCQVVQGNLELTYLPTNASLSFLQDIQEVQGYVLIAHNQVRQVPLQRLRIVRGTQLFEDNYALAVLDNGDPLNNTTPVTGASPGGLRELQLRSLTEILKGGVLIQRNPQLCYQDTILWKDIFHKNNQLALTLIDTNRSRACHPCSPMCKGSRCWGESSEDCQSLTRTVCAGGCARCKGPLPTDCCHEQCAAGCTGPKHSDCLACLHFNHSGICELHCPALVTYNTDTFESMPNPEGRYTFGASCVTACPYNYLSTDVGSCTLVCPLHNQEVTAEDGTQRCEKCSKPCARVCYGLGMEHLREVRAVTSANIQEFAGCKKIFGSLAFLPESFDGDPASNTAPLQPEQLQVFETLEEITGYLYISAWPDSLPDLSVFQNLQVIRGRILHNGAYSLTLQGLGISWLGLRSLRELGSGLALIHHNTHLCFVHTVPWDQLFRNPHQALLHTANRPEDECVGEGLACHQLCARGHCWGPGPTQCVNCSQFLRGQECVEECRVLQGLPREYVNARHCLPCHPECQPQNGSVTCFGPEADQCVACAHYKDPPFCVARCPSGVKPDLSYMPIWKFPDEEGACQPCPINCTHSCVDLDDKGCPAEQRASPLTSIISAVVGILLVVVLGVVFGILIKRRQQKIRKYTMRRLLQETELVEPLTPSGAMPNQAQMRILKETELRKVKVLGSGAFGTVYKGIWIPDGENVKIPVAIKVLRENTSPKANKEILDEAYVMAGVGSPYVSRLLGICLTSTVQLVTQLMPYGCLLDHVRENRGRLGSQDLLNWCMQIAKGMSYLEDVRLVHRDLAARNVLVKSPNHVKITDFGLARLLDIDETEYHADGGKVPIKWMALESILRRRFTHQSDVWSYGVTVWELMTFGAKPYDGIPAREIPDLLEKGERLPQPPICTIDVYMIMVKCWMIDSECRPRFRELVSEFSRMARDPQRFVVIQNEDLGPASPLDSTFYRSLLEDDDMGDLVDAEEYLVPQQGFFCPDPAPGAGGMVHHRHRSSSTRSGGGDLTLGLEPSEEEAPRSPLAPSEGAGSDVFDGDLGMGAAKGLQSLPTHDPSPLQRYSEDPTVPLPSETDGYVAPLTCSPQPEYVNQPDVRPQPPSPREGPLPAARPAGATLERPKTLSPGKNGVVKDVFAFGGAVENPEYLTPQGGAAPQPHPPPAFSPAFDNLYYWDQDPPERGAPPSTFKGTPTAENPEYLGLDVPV
Protocol: as §1

[3] = biological target: TEC (Homo sapiens, UniProt P42680); experiment: panel enzyme assay of 257 kinases; type: biochemical; conditions: read-out: % Inhibition by Compound (1) at 1000 nmol/L
Protocol: as §1

[4] = biological target: ITK (Homo sapiens, UniProt Q08881); experiment: panel enzyme assay of 257 kinases; type: biochemical; conditions: read-out: % Inhibition by Compound (1) at 1000 nmol/L
ITK, sequence (Q08881 whole entry, species assumed): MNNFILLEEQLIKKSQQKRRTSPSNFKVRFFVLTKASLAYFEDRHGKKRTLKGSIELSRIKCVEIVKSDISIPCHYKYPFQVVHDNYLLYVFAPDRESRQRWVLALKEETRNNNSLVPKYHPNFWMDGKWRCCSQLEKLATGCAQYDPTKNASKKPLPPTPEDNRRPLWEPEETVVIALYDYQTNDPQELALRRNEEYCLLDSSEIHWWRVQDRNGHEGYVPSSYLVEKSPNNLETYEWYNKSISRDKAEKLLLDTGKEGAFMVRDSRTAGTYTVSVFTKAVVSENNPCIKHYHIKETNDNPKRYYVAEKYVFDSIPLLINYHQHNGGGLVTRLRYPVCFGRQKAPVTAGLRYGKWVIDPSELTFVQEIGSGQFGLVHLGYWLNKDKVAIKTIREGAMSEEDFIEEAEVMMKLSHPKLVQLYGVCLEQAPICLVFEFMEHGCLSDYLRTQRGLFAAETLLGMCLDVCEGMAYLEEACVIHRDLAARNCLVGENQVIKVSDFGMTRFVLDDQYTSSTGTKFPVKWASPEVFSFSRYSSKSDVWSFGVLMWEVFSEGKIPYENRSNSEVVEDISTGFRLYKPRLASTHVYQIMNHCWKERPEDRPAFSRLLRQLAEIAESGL
Protocol: as §1

[5] = biological target: EPHA6 (Homo sapiens, UniProt Q9UF33); experiment: panel enzyme assay of 257 kinases; type: biochemical; conditions: read-out: % Inhibition by Compound (1) at 1000 nmol/L
Protocol: as §1

[6] = biological target: BTK (Homo sapiens, UniProt Q06187); experiment: panel enzyme assay of 257 kinases; type: biochemical; conditions: read-out: % Inhibition by Compound (1) at 1000 nmol/L
BTK, sequence (Q06187 whole entry, species assumed): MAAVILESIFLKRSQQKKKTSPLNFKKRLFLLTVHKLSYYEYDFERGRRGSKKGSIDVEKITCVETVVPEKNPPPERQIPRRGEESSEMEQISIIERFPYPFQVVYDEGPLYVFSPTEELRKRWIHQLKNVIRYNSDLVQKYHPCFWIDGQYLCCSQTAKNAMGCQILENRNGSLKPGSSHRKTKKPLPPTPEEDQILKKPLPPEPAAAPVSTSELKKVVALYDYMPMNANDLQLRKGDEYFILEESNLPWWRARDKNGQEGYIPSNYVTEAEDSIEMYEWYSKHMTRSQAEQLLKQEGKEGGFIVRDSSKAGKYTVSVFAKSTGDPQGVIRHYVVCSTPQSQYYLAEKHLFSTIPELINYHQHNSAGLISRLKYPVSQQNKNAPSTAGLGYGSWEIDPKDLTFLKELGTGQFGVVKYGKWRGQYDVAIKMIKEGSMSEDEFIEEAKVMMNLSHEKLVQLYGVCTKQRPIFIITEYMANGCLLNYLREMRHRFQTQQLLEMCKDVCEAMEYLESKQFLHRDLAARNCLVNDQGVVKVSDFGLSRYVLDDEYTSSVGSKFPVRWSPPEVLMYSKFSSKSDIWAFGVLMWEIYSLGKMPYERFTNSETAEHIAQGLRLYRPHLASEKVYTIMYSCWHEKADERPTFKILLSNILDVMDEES
Protocol: as §1

[7] = biological target: TXK (Homo sapiens, UniProt P42681); experiment: panel enzyme assay of 257 kinases; type: biochemical; conditions: read-out: % Inhibition by Compound (1) at 1000 nmol/L
TXK, sequence (P42681 whole entry, species assumed): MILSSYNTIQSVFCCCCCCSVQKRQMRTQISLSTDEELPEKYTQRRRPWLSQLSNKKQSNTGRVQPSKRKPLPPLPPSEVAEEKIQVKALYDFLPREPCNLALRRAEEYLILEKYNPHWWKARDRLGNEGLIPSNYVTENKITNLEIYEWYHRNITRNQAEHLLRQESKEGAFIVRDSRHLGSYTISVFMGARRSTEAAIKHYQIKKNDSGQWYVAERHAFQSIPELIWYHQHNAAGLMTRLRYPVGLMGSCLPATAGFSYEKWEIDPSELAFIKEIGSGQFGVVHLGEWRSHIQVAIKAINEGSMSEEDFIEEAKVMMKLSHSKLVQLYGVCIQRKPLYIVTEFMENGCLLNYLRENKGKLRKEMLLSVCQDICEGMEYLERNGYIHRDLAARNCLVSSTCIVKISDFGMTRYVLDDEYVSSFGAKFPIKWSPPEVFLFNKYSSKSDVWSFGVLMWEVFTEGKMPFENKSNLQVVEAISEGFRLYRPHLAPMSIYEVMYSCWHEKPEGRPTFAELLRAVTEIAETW
Protocol: as §1

[8] = biological target: FLT4 (Homo sapiens, UniProt P35916); experiment: panel enzyme assay of 257 kinases; type: biochemical; conditions: read-out: % Inhibition by Compound (1) at 1000 nmol/L
Protocol: as §1

[9] = biological target: T2, human BCRP (Homo sapiens, UniProt Q9UNQ0); experiment: in vitro
T2 sequence (Q9UNQ0 1-655): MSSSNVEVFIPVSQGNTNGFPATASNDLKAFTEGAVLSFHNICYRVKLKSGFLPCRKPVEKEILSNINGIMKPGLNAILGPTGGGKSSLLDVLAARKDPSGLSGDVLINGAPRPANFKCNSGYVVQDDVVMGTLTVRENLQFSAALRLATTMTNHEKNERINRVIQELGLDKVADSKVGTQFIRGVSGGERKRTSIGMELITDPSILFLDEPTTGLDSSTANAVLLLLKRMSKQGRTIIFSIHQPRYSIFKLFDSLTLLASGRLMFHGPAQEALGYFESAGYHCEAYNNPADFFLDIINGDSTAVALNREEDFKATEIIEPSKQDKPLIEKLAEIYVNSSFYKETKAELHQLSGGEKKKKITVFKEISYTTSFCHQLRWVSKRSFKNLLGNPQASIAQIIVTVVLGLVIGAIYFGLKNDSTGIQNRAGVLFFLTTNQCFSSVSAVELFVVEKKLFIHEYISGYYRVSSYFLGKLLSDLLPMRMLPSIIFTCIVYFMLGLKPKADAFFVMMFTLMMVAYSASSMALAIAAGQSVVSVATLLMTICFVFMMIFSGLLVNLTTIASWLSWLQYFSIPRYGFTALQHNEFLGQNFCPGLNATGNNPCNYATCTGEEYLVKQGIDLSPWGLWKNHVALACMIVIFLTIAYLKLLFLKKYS

[10] = system: MDA-MB-175VII cells (DOC4-NRG1 fusion); experiment: growth inhibitory effect in NRG1 fusion-driven cancer cell line (GI50); type: cell-based; conditions: Homo sapiens, mean of 3-4 independent experiments
Protocol: GI50 values were also determined for currently approved EGFR/HER2 tyrosine kinase inhibitors: afatinib, osimertinib, tucatinib, lapatinib, and neratinib, and one investigational drug (poziotinib). Mean values were determined from 3-4 independent experiments.

[11] = biological target: HER2 A775_G776insYVMA (Homo sapiens, UniProt P04626, INS775YVMA); experiment: in vitro kinase assay (enzyme assay); type: biochemical; conditions: human recombinant enzyme; read-out: IC50 (Mean ± SD)
HER2 A775_G776insYVMA, sequence (P04626 with tags, fused parts or gaps INS775YVMA limits assumed): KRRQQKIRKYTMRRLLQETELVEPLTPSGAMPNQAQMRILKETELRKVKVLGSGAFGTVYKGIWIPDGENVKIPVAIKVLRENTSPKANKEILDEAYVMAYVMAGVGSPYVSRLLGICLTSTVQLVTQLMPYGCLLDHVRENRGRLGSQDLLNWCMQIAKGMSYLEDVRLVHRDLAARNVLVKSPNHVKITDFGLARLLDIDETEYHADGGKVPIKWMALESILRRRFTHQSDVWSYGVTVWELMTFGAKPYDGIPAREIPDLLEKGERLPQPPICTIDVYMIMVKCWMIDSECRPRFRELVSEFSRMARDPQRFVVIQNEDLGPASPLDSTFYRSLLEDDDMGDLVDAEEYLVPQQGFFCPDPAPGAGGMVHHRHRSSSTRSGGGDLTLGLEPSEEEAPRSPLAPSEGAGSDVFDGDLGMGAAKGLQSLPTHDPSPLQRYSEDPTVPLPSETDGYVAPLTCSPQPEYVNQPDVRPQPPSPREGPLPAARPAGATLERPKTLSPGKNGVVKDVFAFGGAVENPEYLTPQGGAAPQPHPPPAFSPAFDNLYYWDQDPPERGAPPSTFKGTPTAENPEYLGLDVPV
Protocol: (§2) To investigate the inhibitory effect of Compound (1) on HER2 enzyme activity, the mean±standard deviation (SD) of half-maximal inhibitory concentration (IC50) values of Compound (1) against human recombinant enzymes of HER2 and its mutants were determined by in vitro kinase assays (Table 1).

[12] = biological target: T1, HER2; experiment: in vitro kinase assay (enzyme assay); type: biochemical; conditions: human recombinant enzyme; read-out: IC50 (Mean ± SD)
Protocol: as §2

[13] = biological target: HER2 V777L (Homo sapiens, UniProt P04626, V777L); experiment: in vitro kinase assay (enzyme assay); type: biochemical; conditions: human recombinant enzyme; read-out: IC50 (Mean ± SD)
HER2 V777L, sequence (P04626 23-1255 V777L): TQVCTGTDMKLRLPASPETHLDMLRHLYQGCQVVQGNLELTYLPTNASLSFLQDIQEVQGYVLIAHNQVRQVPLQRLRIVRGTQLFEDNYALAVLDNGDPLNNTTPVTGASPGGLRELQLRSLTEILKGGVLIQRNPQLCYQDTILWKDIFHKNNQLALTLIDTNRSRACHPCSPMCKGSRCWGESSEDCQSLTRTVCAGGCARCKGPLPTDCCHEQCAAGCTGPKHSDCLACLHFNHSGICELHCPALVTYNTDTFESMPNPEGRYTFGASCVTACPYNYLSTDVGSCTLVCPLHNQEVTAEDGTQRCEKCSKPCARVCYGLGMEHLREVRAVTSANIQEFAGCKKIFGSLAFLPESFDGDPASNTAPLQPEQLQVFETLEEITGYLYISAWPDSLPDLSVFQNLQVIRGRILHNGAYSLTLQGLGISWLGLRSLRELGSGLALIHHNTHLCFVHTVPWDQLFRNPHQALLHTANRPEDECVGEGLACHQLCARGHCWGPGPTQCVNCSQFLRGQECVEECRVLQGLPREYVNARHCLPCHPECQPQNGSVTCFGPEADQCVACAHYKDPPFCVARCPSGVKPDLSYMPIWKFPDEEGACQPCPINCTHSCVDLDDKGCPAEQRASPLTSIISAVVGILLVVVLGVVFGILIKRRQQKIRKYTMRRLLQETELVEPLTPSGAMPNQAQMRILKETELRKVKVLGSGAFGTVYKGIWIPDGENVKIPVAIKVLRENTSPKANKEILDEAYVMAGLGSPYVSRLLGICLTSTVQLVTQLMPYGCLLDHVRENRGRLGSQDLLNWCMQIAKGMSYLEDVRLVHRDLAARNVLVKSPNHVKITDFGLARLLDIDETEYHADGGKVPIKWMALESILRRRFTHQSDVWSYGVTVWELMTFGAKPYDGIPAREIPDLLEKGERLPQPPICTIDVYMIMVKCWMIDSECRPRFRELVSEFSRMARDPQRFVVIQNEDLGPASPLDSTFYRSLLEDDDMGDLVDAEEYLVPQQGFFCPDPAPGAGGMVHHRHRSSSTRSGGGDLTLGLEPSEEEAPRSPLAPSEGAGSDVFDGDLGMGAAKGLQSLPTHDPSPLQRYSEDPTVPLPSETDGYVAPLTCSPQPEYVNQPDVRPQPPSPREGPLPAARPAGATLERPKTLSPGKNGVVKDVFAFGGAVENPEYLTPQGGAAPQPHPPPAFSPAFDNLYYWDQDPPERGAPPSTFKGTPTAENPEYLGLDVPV
Protocol: as §2

[14] = brain penetrability after single oral administration; type: in vivo, male nude mice; conditions: male, nude, mouse
Protocol: Brain penetrability of Compound (1) in nude mice. The brain penetrability of Compound (1) was confirmed by Kp,brain values at 0.5 and 1 hour in male nude mice following a single oral administration at 50 mg/kg (Table 6). Based on the brain penetrability study and brain and plasma protein binding studies, Kp,uu,brain was calculated to be 0.26±0.05 for 0.5 hour and 0.13±0.03 for 1 hour.

[15] = brain binding, brain homogenate, equilibrium dialysis; type: in vitro ADME, nude mouse
Protocol: Brain binding of Compound (1) in nude mice. Brain binding of Compound (1) at 0.005, 0.01, 0.05, 0.1, and 0.5 μmol/L using nude mouse brain homogenate was evaluated by equilibrium dialysis method. The brain binding at […] was not calculated due to the limit of quantification by LC-MS/MS, but at 0.05, 0.1, and 0.5 μmol/L was 99.6±0.0%, 99.5±0.0%, and 99.5±0.0%, respectively.

[16] = system: 257 kinases; experiment: panel enzyme assay of 257 kinases, whole panel; type: biochemical; conditions: 1000 nmol/L
Protocol: as §1

[17] = system: T3, human BCRP; experiment: substrate susceptibility on human BCRP, bidirectional transcellular transport, BCRP/MDCK II cells; type: in vitro ADME; conditions: human
T3 construct: expressed in transfected cells; host or cells: MDCK II (canine kidney) cells expressing human BCRP; parent MDCK II as control
Protocol: (§3) Substrate susceptibility of Compound (1) on human BCRP. Time-dependence of the bidirectional transcellular transport of 0.3, 0.5, 1, 3, and 30 μmol/L Compound (1) across human BCRP/Madin-Darby canine kidney II (MDCK II) cells and parent/MDCK II cells was analyzed.

[18] = system: T4, BCRP; experiment: as above; type: in vitro ADME; conditions: human, with Ko143 10 μmol/L; read-out: net flux ratio
T4 construct: expressed in transfected cells; host or cells: MDCK II (canine kidney) cells expressing human BCRP; parent MDCK II as control
Protocol: as §3

With `C=CC(=O)N1C[C@H](n2c(C#CC3CC3)c(C(=O)N[C@H](C)c3ccccc3)c3c(N)ncnc32)C[C@@H]1C` [Compound (1), 7-((3R,5S)-1-acryloyl-5-methylpyrrolidin-3-yl)-4-amino-6-(cyclopropylethynyl)-N—((R)-1-phenylethyl)-7H-pyrrolo[2,3-d]pyrimidine-5-carboxamide] the inhibition at 1 µM [1] was 67.2%, the inhibition at 1 µM [2] was 100% and the inhibition at 1 µM [3] was 81.7%. It also gave an inhibition at 1 µM [4] of 56.4%, an inhibition at 1 µM [5] of 72.9% and an inhibition at 1 µM [6] of 80%. It also gave an inhibition at 1 µM [7] of 89.4%, an inhibition at 1 µM [8] of 80.4% and an activity at 3 h, 0.01 μmol/L [9] of 114%. It also gave an activity at 3 h, 0.1 μmol/L [9] of 95%, an activity at 3 h, 0.5 μmol/L [9] of 54% and an activity at 3 h, 1 μmol/L [9] of 24%. It also gave an activity at 3 h, 5 μmol/L [9] of 10%, an activity at 3 h, 10 μmol/L [9] of 3% and a GI50 [10] of 1.2 ± 0.3 nM. For the same molecule, the IC50 [11] was 1 ± 0.2 nM, the IC50 [12] was 5.6 ± 0.3 nM and the IC50 [13] was 2.1 ± 0.8 nM. It also gave a Kp uu at 0.5 h ([14]; brain and plasma (unbound), 0.5 hr after single oral 50 mg/kg) of 0.26 ± 0.05, a Kp uu at 1 h ([14]; brain and plasma (unbound), 1 hr after single oral 50 mg/kg) of 0.13 ± 0.03 and a Kp at 0.5 h ([14]; brain, 0.5 hr after single oral 50 mg/kg) of 0.415 ± 0.08. For the same molecule, the concentration at 0.5 h ([14]; brain, 0.5 hr after single oral 50 mg/kg, read-out: Brain Concentration) was 3590 ± 600 ng/g, the Kp at 1 h ([14]; brain, 1 hr after single oral 50 mg/kg) was 0.206 ± 0.042 and the concentration at 1 h ([14]; brain, 1 hr after single oral 50 mg/kg, read-out: Brain Concentration) was 1290 ± 440 ng/g. For the same molecule, the concentration at 0.5 h ([14]; plasma, 0.5 hr after single oral 50 mg/kg, read-out: Plasma Concentration) was 8720 ± 650 ng/mL, the concentration at 1 h ([14]; plasma, 1 hr after single oral 50 mg/kg, read-out: Plasma Concentration) was 6170 ± 910 ng/mL and the brain binding ([15]; 0.05 μmol/L) was 99.6±0.0%. For the same molecule, the brain binding ([15]; 0.1 μmol/L) was 99.5±0.0%, the brain binding ([15]; 0.5 μmol/L) was 99.5±0.0% and the “number of the 257 kinases tested with ≥50% inhibition of activity” value [16] was 14. For the same molecule, the “inhibition of activity for the other 243 kinases” value ([16]; weak inhibition or no inhibitory effect) was < 50%, the efflux ratio at 2 h, 0.5 μmol/L ([17]; with Ko143 10 μmol/L, read-out: net flux ratio) was 1.2 ± 0.3 and the efflux ratio at 4 h, 0.3 μmol/L ([17]; with Ko143 (concentration not stated for this arm), read-out: net flux ratio) was 1.1 ± 0.2. For the same molecule, the efflux ratio at 0.3 μmol/L ([17]; 0.3 μmol/L Compound (1), 3 and 4 hours, read-out: flux ratios in parent and human BCRP/MDCK II cells) was > 2, the efflux ratio at 2 h [18] was 2 ± 0.5 and the efflux ratio at 3 h [18] was 1.4 ± 0.2.
